Test results published in patent US8022206B2 (OSI Pharmaceuticals, LLC, priority 2008, dated 2011).
pIC50: −log10 of the molar value.

Tests used:
MET (human) = MET (human) (Homo sapiens, UniProt P08581); experiment: MET (human) AlphaScreen kinase assay, Km of ATP; type: biochemical; conditions: AlphaScreen, Km of ATP; read-out: Met biochemical IC50
Description: (§1) Someone skilled in the art will appreciate that a variety of assay formats may be used to determine the activity of the compounds of this invention. For example, AlphaScreen (Amplified Luminescent Proximity Homogeneous Assay) technology was used with the kinases described below. Assay ATP concentrations for individual kinases are included in the text.
Desired compound is added in a final concentration of 1% DMSO with control being vehicle of DMSO alone. MET is diluted to the optimized concentration (optimized on a lot-by-lot basis) in an enzyme diluent buffer (50 mM Tris pH=7.4, 1% glycerol, 0.03% Brij35, 0.24 mM EGTA, 1 mM DTT, and 0.003% BSA). Enzyme is added to initiate the reaction and incubated for 60 min at RT. In subdued light, appropriate amount of PT66 donor and acceptor beads (diluted 1:260 from manufacturer's provision in a 25 mM Tris HCl (pH=7.5), 400 mM NaCl, 100 mM EDTA, 0.3% BSA buffer) are added to the wells. The plates, incubated for 1 h, are read on an AlphaQuest plate reader

RON (human) = RON (human) (Homo sapiens, UniProt Q04912); experiment: RON (human) AlphaScreen kinase assay, Km of ATP; type: biochemical; conditions: AlphaScreen, Km of ATP; read-out: RON biochemical IC50
Description: as §1
Desired compound is added in a final concentration of 1% DMSO with control being vehicle of DMSO alone. […] Enzyme is added to initiate the reaction and incubated for 30 min at RT. In subdued light, appropriate amount of PT66 donor and acceptor beads (diluted 1:260 from manufacturer's provision in a 25 mM Tris HCl (pH=7.5), 200 mM NaCl, 100 mM EDTA, 0.3% BSA buffer) are added to the wells. The plates, incubated for 1 h, are read on an AlphaQuest plate reader.

MET (human), sequence (P08581 25-1390): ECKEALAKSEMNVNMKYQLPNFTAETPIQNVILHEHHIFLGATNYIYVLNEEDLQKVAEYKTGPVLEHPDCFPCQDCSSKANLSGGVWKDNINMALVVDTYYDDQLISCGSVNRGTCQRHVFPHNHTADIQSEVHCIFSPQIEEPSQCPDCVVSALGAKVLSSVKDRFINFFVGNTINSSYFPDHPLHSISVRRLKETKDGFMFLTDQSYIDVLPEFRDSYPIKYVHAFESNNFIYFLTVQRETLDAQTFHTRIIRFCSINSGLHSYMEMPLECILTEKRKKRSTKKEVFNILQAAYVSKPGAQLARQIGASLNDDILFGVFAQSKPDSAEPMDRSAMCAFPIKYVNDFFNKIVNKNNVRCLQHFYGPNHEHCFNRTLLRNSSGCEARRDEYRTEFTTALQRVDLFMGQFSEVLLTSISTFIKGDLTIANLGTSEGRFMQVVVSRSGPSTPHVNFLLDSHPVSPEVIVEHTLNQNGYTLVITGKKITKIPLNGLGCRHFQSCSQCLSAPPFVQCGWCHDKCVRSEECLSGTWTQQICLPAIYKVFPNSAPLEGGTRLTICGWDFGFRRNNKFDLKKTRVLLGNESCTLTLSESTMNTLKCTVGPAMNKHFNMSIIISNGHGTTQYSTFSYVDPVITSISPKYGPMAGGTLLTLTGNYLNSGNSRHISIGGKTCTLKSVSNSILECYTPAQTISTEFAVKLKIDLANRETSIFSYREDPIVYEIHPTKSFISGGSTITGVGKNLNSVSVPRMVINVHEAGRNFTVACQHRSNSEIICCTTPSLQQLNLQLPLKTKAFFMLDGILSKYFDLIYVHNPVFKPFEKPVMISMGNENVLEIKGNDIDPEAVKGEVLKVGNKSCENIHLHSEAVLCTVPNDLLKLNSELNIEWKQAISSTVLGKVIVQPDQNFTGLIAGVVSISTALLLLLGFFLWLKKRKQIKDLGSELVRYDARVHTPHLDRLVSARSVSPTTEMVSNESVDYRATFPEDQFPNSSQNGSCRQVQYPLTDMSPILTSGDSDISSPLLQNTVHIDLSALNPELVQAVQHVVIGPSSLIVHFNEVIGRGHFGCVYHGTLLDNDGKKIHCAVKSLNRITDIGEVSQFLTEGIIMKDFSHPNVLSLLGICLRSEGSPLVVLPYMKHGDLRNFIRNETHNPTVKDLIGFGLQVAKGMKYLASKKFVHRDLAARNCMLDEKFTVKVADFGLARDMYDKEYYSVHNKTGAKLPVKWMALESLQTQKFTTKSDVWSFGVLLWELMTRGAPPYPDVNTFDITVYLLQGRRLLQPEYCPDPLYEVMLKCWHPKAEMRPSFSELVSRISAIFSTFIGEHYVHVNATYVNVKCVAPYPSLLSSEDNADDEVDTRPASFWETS
RON (human), sequence (Q04912 25-1400): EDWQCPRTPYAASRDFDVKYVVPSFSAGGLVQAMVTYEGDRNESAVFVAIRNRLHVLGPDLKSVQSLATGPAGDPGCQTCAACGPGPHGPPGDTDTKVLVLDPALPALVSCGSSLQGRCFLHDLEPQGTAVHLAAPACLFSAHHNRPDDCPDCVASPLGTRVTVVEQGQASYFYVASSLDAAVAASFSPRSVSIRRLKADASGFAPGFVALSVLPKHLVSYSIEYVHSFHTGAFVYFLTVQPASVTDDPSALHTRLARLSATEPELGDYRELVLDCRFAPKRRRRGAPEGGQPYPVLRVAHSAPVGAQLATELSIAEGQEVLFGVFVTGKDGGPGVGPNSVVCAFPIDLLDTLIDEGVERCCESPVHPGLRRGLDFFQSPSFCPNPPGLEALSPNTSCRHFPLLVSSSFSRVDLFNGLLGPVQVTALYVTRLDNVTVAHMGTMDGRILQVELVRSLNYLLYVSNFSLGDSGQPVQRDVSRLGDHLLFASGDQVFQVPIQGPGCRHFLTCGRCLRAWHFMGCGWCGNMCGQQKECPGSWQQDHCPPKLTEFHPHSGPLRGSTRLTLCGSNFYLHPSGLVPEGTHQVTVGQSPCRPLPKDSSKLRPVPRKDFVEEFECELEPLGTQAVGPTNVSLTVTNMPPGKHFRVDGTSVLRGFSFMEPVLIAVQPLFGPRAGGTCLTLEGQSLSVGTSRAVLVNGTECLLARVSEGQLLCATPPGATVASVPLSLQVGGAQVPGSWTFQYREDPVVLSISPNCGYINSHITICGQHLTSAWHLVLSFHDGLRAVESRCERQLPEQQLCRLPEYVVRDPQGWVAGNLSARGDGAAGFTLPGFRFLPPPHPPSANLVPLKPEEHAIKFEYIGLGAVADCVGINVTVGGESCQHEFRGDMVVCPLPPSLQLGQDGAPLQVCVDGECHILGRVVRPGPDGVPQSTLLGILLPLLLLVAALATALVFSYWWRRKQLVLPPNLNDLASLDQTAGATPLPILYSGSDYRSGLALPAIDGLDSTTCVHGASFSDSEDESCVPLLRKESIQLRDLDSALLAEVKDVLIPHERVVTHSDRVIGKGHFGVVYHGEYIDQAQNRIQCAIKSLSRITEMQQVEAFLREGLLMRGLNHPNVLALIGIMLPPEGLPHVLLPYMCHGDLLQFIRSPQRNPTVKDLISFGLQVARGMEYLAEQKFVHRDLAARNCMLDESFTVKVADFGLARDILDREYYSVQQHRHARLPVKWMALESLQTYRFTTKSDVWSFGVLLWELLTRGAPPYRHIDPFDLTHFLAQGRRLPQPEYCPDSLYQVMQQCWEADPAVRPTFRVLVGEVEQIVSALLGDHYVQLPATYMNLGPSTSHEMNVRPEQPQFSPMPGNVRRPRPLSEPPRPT

SMILES	pIC50 (MET (human))	pIC50 (RON (human))
C[C@@H](Oc1c(N)ncc2c(-c3ccc(C(=O)NCCN4CCCCC4)cc3)coc12)c1c(Cl)ccc(F)c1Cl [Example 103, 4-{6-Amino-7-[(R)-1-(2,6-dichloro-3-fluorophenyl)ethoxy]furo[3,2-c]pyridin-3-yl}-N-(2-piperidin-1-ylethyl)benzamide]	> 6.30	5.30 to 6.30
CCN1CCC(n2cc(-c3coc4c(O[C@H](C)c5c(Cl)ccc(F)c5Cl)c(N)ncc34)cn2)CC1 [Example 278, 7-[(1R)-1-(2,6-Dichloro-3-fluorophenyl)ethoxy]-3-[1-(1-ethylpiperidin-4-yl)-1H-pyrazol-4-yl]furo[3,2-c]pyridin-6-amine]	> 6.30	5.30 to 6.30
C[C@@H](Oc1c(N)ncc2c(-c3cnn([C@@H]4CCNC4)c3)coc12)c1c(Cl)ccc(F)c1Cl [Example 162, 7-[(1R)-1-(2,6-dichloro-3-fluorophenyl)ethoxy]-3-{1-[(3R)-pyrrolidin-3-yl]-1H-pyrazol-4-yl}furo[3,2-c]pyridin-6-amine]	> 6.30	> 6.30
Cn1c(Cc2ccccc2)ncc(-c2ccc(COc3c(N)ncc4c(Br)coc34)c(F)c2)c1=O [Example 466, 5-[4-(6-Amino-3-bromofuro[3,2-c]pyridin-7-yloxymethyl)-3-fluorophenyl]-2-benzyl-3-methyl-3H-pyrimidin-4-one]	5.30 to 6.30	5.30 to 6.30
C[C@@H](Oc1c(N)ncc2c(-c3ccc(N4CCNCC4)nc3)coc12)c1c(Cl)ccc(F)c1Cl [Example 130, 7-[(R)-(2,6-Dichloro-3-fluorophenyl)ethoxy]-3-(6-piperazin-1-yl-pyridin-3-yl)furo[3,2-c]pyridin-6-ylamine]	> 6.30	> 6.30
Cc1ccc(-c2coc3c(O[C@H](C)c4c(Cl)ccc(F)c4Cl)c(N)ncc23)o1 [Example 117]	5.30 to 6.30	5.30 to 6.30
CC(Cc1c(F)cccc1Cl)Oc1c(N)ncc2c(-c3cnn(C4CCNCC4)c3)coc12 (stereo not drawn) [Example 419, 7-[2-(2-Chloro-6-fluorophenyl)-1-methylethoxy]-3-(1-piperidin-4-yl-1H-pyrazol-4-yl)furo[3,2-c]pyridin-6-ylamine]	5.30 to 6.30	5.30 to 6.30
CC(Cc1ccccc1C(F)(F)F)Oc1c(N)ncc2c(-c3cnn(C4CCNCC4)c3)coc12 (stereo not drawn) [Example 435, 7-[1-Methyl-2-(2-trifluoromethylphenyl)ethoxy]-3-(1-piperidin-4-yl-1H-pyrazol-4-yl)furo[3,2-c]pyridin-6-ylamine]	> 6.30	5.30 to 6.30
C[C@@H](Oc1c(N)ncc2c(-c3cnc(N4CCN(C)CC4)nc3)coc12)c1c(Cl)ccc(F)c1Cl [Example 123, 7-[(R)-1-(2,6-Dichloro-3-fluorophenyl)ethoxy]-3-[2-(4-methylpiperazin-1-yl)pyrimidin-5-yl]furo[3,2-c]pyridin-6-ylamine]	5.30 to 6.30	5.30 to 6.30
Nc1ncc2c(-c3cnn(C4CCNCC4)c3)coc2c1OCCc1ccccc1 [Example 416, 7-Phenethyloxy-3-(1-piperidin-4-yl-1H-pyrazol-4-yl)furo[3,2-c]pyridin-6-ylamine]	5.30 to 6.30	5.30 to 6.30
Cc1ccsc1-c1coc2c(O[C@H](C)c3c(Cl)ccc(F)c3Cl)c(N)ncc12 [Example 116, 7-[(R)-1-(2,6-Dichloro-3-fluorophenyl)ethoxy]-3-(3-methylthiophen-2-yl)furo[3,2-c]pyridin-6-ylamine]	5.30 to 6.30	4.70 to 5.30
CC(=O)N1CCN(c2ccc(-c3coc4c(O[C@H](C)c5c(Cl)ccc(F)c5Cl)c(N)ncc34)cn2)CC1 [Example 281, 1-[4-(5-{6-Amino-7-[(R)-1-(2,6-dichloro-3-fluorophenyl)ethoxy]furo[3,2-c]pyridin-3-yl}-pyridin-2-yl)-piperazin-1-yl]ethanone]	> 6.30	5.30 to 6.30
C[C@@H](Oc1c(N)ncc2c(C(=O)NC3CCNCC3)coc12)c1c(Cl)ccc(F)c1Cl [Example 182, 6-Amino-7-[(R)-1-(2,6-dichloro-3-fluorophenyl)ethoxy]furo[3,2-c]pyridine-3-carboxylic acid piperidin-4-ylamide]	> 6.30	5.30 to 6.30
CC(Cc1c(Cl)cccc1C(F)(F)F)Oc1c(N)ncc2c(-c3cnn(C4CCNCC4)c3)coc12 (stereo not drawn) [Example 440, 7-[2-(2-Chloro-6-trifluoromethylphenyl)-1-methylethoxy]-3-(1-piperidin-4-yl-1H-pyrazol-4-yl)furo[3,2-c]pyridin-6-ylamine]	> 6.30	5.30 to 6.30
C[C@@H](Oc1c(N)ncc2c(-c3cccc(NS(=O)(=O)CCC(F)(F)F)c3)coc12)c1c(Cl)ccc(F)c1Cl [Example 248, 3,3,3-Trifluoropropane-1-sulfonic acid (3-{6-amino-7-[(R)-1-(2,6-dichloro-3-fluorophenyl)ethoxy]-furo[3,2-c]pyridin-3-yl}phenyl)amide]	5.30 to 6.30	4.70 to 5.30
C[C@@H](Oc1c(N)ncc2c(-c3ccc(C(=O)O)s3)coc12)c1c(Cl)ccc(F)c1Cl [Example 206, 5-{6-Amino-7-[(R)-1-(2,6-dichloro-3-fluorophenyl)ethoxy]-furo[3,2-c]pyridin-3-yl}-thiophene-2-carboxylic acid]	> 6.30	5.30 to 6.30
C[C@@H](Oc1c(N)ncc2c(-c3cnn(C4CCNCC4)c3)c(-c3ccccc3)oc12)c1c(Cl)ccc(F)c1Cl [Example 170, 7-[(R)-1-(2,6-Dichloro-3-fluorophenyl)ethoxy]-2-phenyl-3-(1-piperidin-4-yl-1H-pyrazol-4-yl)-furo[3,2-c]pyridin-6-ylamine]	5.30 to 6.30	5.30 to 6.30
C[C@@H](Oc1c(N)ncc2c(C3=CCN(C(=O)N4CCN(C(C)(C)C)CC4)CC3)coc12)c1c(Cl)ccc(F)c1Cl [Example 29, (4-{6-Amino-7-[(R)-1-(2,6-dichloro-3-fluorophenyl)-ethoxy]-furo[3,2-c]pyridin-3-yl}-3,6-dihydro-2H-pyridin-1-yl)-(4-tert-butylpiperazin-1-yl)-methanone]	> 6.30	> 6.30
CC(Oc1c(N)ncc2c(-c3cnn(C4CCNCC4)c3)coc12)c1ccccc1OC(F)(F)F (stereo not drawn) [Example 354, 3-(1-Piperidin-4-yl-1H-pyrazol-4-yl)-7-[1-(2-trifluoromethoxy-phenyl)ethoxy]furo[3,2-c]pyridin-6-ylamine]	5.30 to 6.30	5.30 to 6.30
C[C@@H](Oc1c(N)ncc2c(-c3ccc(CN4CCNCC4)s3)coc12)c1c(Cl)ccc(F)c1Cl [Example 217, 7-[(R)-1-(2,6-Dichloro-3-fluorophenyl)ethoxy]-3-(5-piperazin-1-ylmethylthiophen-2-yl)-furo[3,2-c]pyridin-6-ylamine]	> 6.30	> 6.30
C[C@@H](Oc1c(N)ncc2c(-c3ccc(CN4CCOCC4)cc3)coc12)c1c(Cl)ccc(F)c1Cl [Example 85, 7-[(R)-1-(2,6-Dichloro-3-fluorophenyl)ethoxy]-3-(4-morpholin-4-ylmethylphenyl)furo[3,2-c]pyridin-6-ylamine]	5.30 to 6.30	5.30 to 6.30
C[C@@H](Oc1c(N)ncc2c(-c3ccc(C(=O)N(C)C)cc3)coc12)c1c(Cl)ccc(F)c1Cl [Example 72, 4-{6-Amino-7-[(R)-1-(2,6-dichloro-3-fluorophenyl)ethoxy]-furo[3,2-c]pyridin-3-yl}-N,N-dimethylbenzamide]	> 6.30	5.30 to 6.30
CC(Oc1c(N)ncc2c(-c3cnn(C4CCNCC4)c3)coc12)c1cccc(-c2cn[nH]c2)c1 (stereo not drawn) [Example 447]	5.30 to 6.30	5.30 to 6.30
C[C@@H](Oc1c(N)ncc2c(C3=CCN(S(=O)(=O)c4ccccc4)CC3)coc12)c1c(Cl)ccc(F)c1Cl [Example 49, 3-(1-Benzenesulfonyl-1,2,3,6-tetrahydropyridin-4-yl)-7-[(R)-1-(2,6-dichloro-3-fluorophenyl)-ethoxy]-furo[3,2-c]pyridin-6-ylamine]	5.30 to 6.30	5.30 to 6.30
CC(Cc1ccc(Cl)cc1)Oc1c(N)ncc2c(-c3cnn(C4CCNCC4)c3)coc12 (stereo not drawn) [Example 370, 7-[2-(4-Chlorophenyl)-1-methylethoxy]-3-(1-piperidin-4-yl-1H-pyrazol-4-yl)furo[3,2-c]pyridin-6-ylamine]	> 6.30	5.30 to 6.30
C[C@@H](Oc1c(N)ncc2c(-c3cccc(O)c3)coc12)c1c(Cl)ccc(F)c1Cl [Example 128, 3-{6-Amino-7-[(R)-(2,6-dichloro-3-fluorophenyl)ethoxy]-furo[3,2-c]pyridin-3-yl}phenol]	5.30 to 6.30	5.30 to 6.30
CNC(=O)c1cccc(-c2coc3c(O[C@H](C)c4c(Cl)ccc(F)c4Cl)c(N)ncc23)c1 [Example 68, 3-{6-Amino-7-[(R)-1-(2,6-dichloro-3-fluorophenyl)ethoxy]-furo[3,2-c]pyridin-3-yl}-N-methylbenzamide]	5.30 to 6.30	5.30 to 6.30
